Source: the supplement of paper PMC10307832

How the values were obtained:
Assay in all cases: relative viability (nuclei count vs DMSO), 5 days (fraction); higher = more cells survive
[1] = compound: CC1=NC=CC(=C1)C2=CC=C(C=C2)CC(=O)NC3=CC=C(C=C3)C4=CN=CC=C4 [Wnt-C59] + CCNC(=O)c1noc(-c2cc(C(C)C)c(O)cc2O)c1-c1ccc(CN2CCOCC2)cc1 [Luminespib] (partner 0.01 µM)
Outline: (§1)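 Relative viability is defined as nuclei in treated wells over nuclei in vehicle wells. Duplicate plates were run and medians reported. Lung cancer cell lines in 1536-well plates were dosed by pin tool one day after seeding, with one drug or with a fixed anchor-drug dose plus five library-drug doses (not always all listed) in √10 steps, and nuclei were counted after 5 days.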

[2] = compound: CC1=NC=CC(=C1)C2=CC=C(C=C2)CC(=O)NC3=CC=C(C=C3)C4=CN=CC=C4 [Wnt-C59] + Nc1nc2[nH]cc(CCc3ccc(C(=O)N[C@@H](CCC(=O)O)C(=O)O)cc3)c2c(=O)[nH]1 [Pemetrexed] (partner 0.2 µM)
Outline: as §1

[3] = compound: CS(=O)(=O)CCNCc1ccc(-c2ccc3ncnc(Nc4ccc(OCc5cccc(F)c5)c(Cl)c4)c3c2)o1 [Lapatinib] + COc1cccc2cc(-c3nc([C@H]4CC[C@H](C(=O)O)CC4)n4ncnc(N)c34)[nH]c12 [OSI-027] (partner 0.5 µM)
Outline: as §1

[4] = compound: CC1=NC=CC(=C1)C2=CC=C(C=C2)CC(=O)NC3=CC=C(C=C3)C4=CN=CC=C4 [Wnt-C59]
Outline: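 Five library-drug doses, separated by factors of √10, were pinned into 1536-well plates holding lung cancer cell lines after an overnight stay at 37 °C. Cells were fixed, permeabilised and Hoechst-stained in one step after 5 days without medium change, then imaged at 4×. Viability compares treated-well with vehicle-well nuclei, counted in MetaXpress, as a median across plates. Passing plates had control CV below 25% and at least one doubling.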

| Cell Line | relative viability ([1]; first compound 0.001 µM) | relative viability ([1]; first compound 0.01 µM) | relative viability ([1]; first compound 0.03162 µM) | relative viability ([1]; first compound 0.1 µM) | relative viability ([2]; first compound 0.001 µM) | relative viability ([2]; first compound 0.01 µM) | relative viability ([2]; first compound 0.03162 µM) | relative viability ([2]; first compound 0.1 µM) | relative viability ([3]; first compound 0.06325 µM) | relative viability ([3]; first compound 0.2 µM) | relative viability ([3]; first compound 0.6325 µM) | relative viability ([3]; first compound 2 µM) | relative viability ([4]; 0.001 µM) | relative viability ([4]; 0.01 µM) | relative viability ([4]; 0.03162 µM) | relative viability ([4]; 0.1 µM) | relative viability ([3]; first compound 0.02 µM) |
| --- | --- | --- | --- | --- | --- | --- | --- | --- | --- | --- | --- | --- | --- | --- | --- | --- | --- |
| NCI-H441 | 0.428 | 0.247 | 0.276 | 0.407 | 0.277 | 0.225 | 0.258 | 0.276 | 0.34 | 0.53 | 0.559 | 0.617 | 1.11 | 1.22 | 1.1 | 0.993 |  |
| NCI-H460 | 0.0357 | 0.0331 | 0.0466 | 0.0312 | 0.0664 | 0.0664 | 0.0652 | 0.0706 | 0.438 | 0.481 | 0.533 | 0.477 | 0.973 | 0.95 | 1.02 | 0.957 | 0.544 |
| NCI-H520 | 0.212 | 0.212 | 0.231 | 0.212 | 0.655 | 0.626 | 0.787 | 0.682 | 0.181 | 0.321 | 0.266 | 0.232 | 1.1 | 0.95 | 0.901 | 1.07 | 0.276 |
| NCI-H522 | 1.63 | 1.2 | 0.979 | 1.13 | 1.18 | 1.03 | 1.17 | 0.855 | 0.565 | 0.658 | 0.681 | 0.589 | 1.04 | 0.927 | 0.994 | 0.957 |  |
| NCI-H596 | 1.14 | 1.08 | 1.06 | 1.06 | 0.533 | 0.569 | 0.483 | 0.479 | 0.52 | 0.566 | 0.671 | 0.416 | 0.93 | 0.936 | 1.12 | 1.06 |  |
| NCI-H647 | 0.145 | 0.175 | 0.149 | 0.166 | 0.162 | 0.158 | 0.201 | 0.178 | 0.488 | 0.527 | 0.689 | 0.642 | 0.914 | 1 | 0.934 | 0.946 | 0.635 |
| NCI-H650 | 0.752 | 0.751 | 0.865 | 0.718 | 1.09 | 0.969 | 0.934 | 0.951 | 0.411 | 0.468 | 0.505 | 0.543 | 0.886 | 0.952 | 1.03 | 0.974 |  |
| NCI-H661 | 0.904 | 0.911 | 0.972 | 0.912 | 0.884 | 0.878 | 0.91 | 0.884 | 0.322 | 0.545 | 0.495 | 0.424 | 0.961 | 1.01 | 1.08 | 0.99 | 0.654 |
| NCI-H838 | 0.279 | 0.347 | 0.311 | 0.303 | 0.235 | 0.24 | 0.267 | 0.242 | 0.256 | 0.369 | 0.383 | 0.332 | 0.981 | 0.985 | 0.964 | 0.995 | 0.401 |
| NCI-H1355 | 0.774 | 0.693 | 0.649 | 0.626 | 1.04 | 1.03 | 1.03 | 0.96 | 0.216 | 0.342 | 0.367 | 0.268 | 1.02 | 0.885 | 1.01 | 0.905 |  |
| NCI-H1395 | 0.702 | 0.589 | 0.762 | 0.773 | 0.968 | 0.861 | 0.94 | 0.885 | 0.597 | 0.612 | 0.636 | 0.627 | 0.995 | 0.873 | 0.952 | 1.03 | 0.535 |
| NCI-H1437 | 1.21 | 1.07 | 1.17 | 1.05 | 0.36 | 0.299 | 0.31 | 0.331 | 0.684 | 0.841 | 0.751 | 0.645 | 0.997 | 0.997 | 1 | 1.03 | 0.814 |
| NCI-H1563 | 0.498 | 0.539 | 0.565 | 0.528 | 0.736 | 0.751 | 0.723 | 0.705 | 0.654 | 0.772 | 0.715 | 0.715 | 1.07 | 0.933 | 0.954 | 0.941 | 0.716 |
| NCI-H1650 | 0.223 | 0.197 | 0.203 | 0.214 | 0.354 | 0.442 | 0.38 | 0.422 | 0.456 | 0.59 | 0.555 | 0.338 | 1.02 | 0.898 | 0.957 | 0.826 | 0.437 |
| NCI-H1651 | 0.864 | 0.862 | 0.97 | 0.835 | 0.577 | 0.618 | 0.648 | 0.558 | 0.454 | 0.622 | 0.648 | 0.519 | 0.985 | 0.998 | 0.997 | 1 | 0.648 |
| NCI-H1666 | 1.05 | 1.04 | 1.04 | 1.03 | 0.865 | 0.799 | 0.828 | 0.869 | 0.732 | 0.645 | 0.657 | 0.316 | 0.993 | 0.92 | 0.951 | 0.967 | 0.828 |

| Cell Line | relative viability ([1]; first compound 0.001 µM) | relative viability ([1]; first compound 0.01 µM) | relative viability ([1]; first compound 0.03162 µM) | relative viability ([1]; first compound 0.1 µM) | relative viability ([2]; first compound 0.001 µM) | relative viability ([2]; first compound 0.01 µM) | relative viability ([2]; first compound 0.03162 µM) | relative viability ([2]; first compound 0.1 µM) | relative viability ([3]; first compound 0.06325 µM) | relative viability ([3]; first compound 0.2 µM) | relative viability ([3]; first compound 0.6325 µM) | relative viability ([3]; first compound 2 µM) | relative viability ([4]; 0.001 µM) | relative viability ([4]; 0.01 µM) | relative viability ([4]; 0.03162 µM) | relative viability ([4]; 0.1 µM) | relative viability ([3]; first compound 0.02 µM) |
| --- | --- | --- | --- | --- | --- | --- | --- | --- | --- | --- | --- | --- | --- | --- | --- | --- | --- |
| NCI-H1734 | 0.233 | 0.241 | 0.196 | 0.138 | 0.414 | 0.389 | 0.423 | 0.394 | 0.375 | 0.579 | 0.721 | 0.507 | 0.986 | 0.961 | 1.01 | 0.957 | 0.615 |
| NCI-H1755 | 0.549 | 0.534 | 0.407 | 0.644 | 0.421 | 0.407 | 0.419 | 0.402 | 0.567 | 0.653 | 0.696 | 0.697 | 0.994 | 0.969 | 0.999 | 0.914 | 0.423 |
| NCI-H1792 | 0.515 | 0.388 |  | 0.656 | 0.723 | 0.714 | 0.777 | 1.18 |  | 0.558 | 0.533 | 0.31 | 0.918 | 0.921 | 0.705 | 1.07 | 0.665 |
| NCI-H1793 | 0.176 |  | 0.204 | 0.201 | 0.813 | 0.693 | 0.914 | 0.953 | 0.143 | 0.235 | 0.167 | 0.16 | 0.78 | 0.681 | 1.1 | 0.976 |  |
| NCI-H1915 | 0.867 | 0.74 | 0.986 | 0.785 | 0.502 | 0.464 | 0.517 | 0.505 | 0.601 | 0.629 | 0.607 | 0.619 | 0.995 | 0.942 | 0.969 | 1 |  |
| NCI-H1944 | 0.802 | 0.758 | 0.769 | 0.652 | 0.615 | 0.594 | 0.639 | 0.602 | 0.237 | 0.356 | 0.361 | 0.31 | 0.956 | 0.945 | 1.07 | 1.01 | 0.28 |
| NCI-H1975 | 0.347 | 0.28 | 0.217 | 0.143 | 0.321 | 0.307 | 0.288 | 0.311 | 0.472 | 0.494 | 0.568 | 0.446 | 0.901 | 0.896 | 0.968 | 0.988 | 0.699 |
| NCI-H1993 | 0.862 |  | 0.948 | 0.365 | 0.67 | 0.591 | 0.609 | 0.625 |  | 0.593 | 0.586 | 0.652 | 0.86 | 0.751 | 1.04 | 0.909 | 0.557 |
| NCI-H2009 | 1.04 | 0.976 | 1.07 | 0.997 | 0.988 | 1.11 | 1.07 | 1.04 | 0.557 | 0.681 | 0.764 | 0.66 | 0.997 | 0.999 | 1 | 0.992 | 0.64 |
| NCI-H2023 | 0.775 | 0.757 | 0.785 | 0.702 | 0.238 | 0.258 | 0.221 | 0.24 |  | 0.337 | 0.382 | 0.177 | 0.948 | 1.03 | 1.15 | 0.801 | 0.379 |
| NCI-H2085 | 0.457 | 0.502 | 0.419 | 0.494 | 0.837 | 0.887 | 0.963 | 0.888 | 0.536 | 0.61 | 0.584 | 0.269 | 1.02 | 0.98 | 1 | 0.953 |  |
| NCI-H2087 | 0.146 | 0.183 | 0.187 | 0.216 | 0.629 | 0.72 | 0.697 | 0.709 | 0.259 | 0.547 | 0.527 | 0.489 | 1.07 | 0.922 | 0.971 | 1.01 |  |
| NCI-H2126 | 0.83 | 1 | 0.991 | 0.892 | 0.688 | 0.655 | 0.642 | 0.649 |  | 0.644 | 0.688 | 0.557 | 1.02 | 0.976 | 1.03 | 1.04 |  |
| NCI-H2170 | 0.583 | 0.722 | 0.758 | 0.655 | 0.271 | 0.275 | 0.253 | 0.274 | 0.459 | 0.64 | 0.41 | 0.245 | 0.997 | 0.879 | 0.939 | 0.975 | 0.459 |
| NCI-H2228 | 0.173 | 0.149 | 0.223 | 0.197 | 0.306 | 0.334 | 0.337 | 0.328 | 0.36 | 0.482 | 0.568 | 0.478 | 1.01 | 0.819 | 0.891 | 0.868 | 0.395 |
| NCI-H2342 | 0.692 | 0.658 | 0.806 | 0.809 | 0.758 | 0.773 | 0.892 | 0.777 | 0.503 | 0.506 | 0.562 | 0.55 | 1.01 | 1 | 0.989 | 1.03 | 0.552 |
